Assay results reported in US20230165872A1, “COMBINATION OF BCMA-DIRECTED T CELL THERAPY AND AN IMMUNOMODULATORY COMPOUND” (Juno Therapeutics, Inc., priority 2020, published 2023).

Tests used:
Ikaros = assay: Intracellular Ikaros expression in BCMA-bead stimulated anti-BCMA CAR T cells (flow cytometry, MFI); format: cell-based, human
Description: (§1) A BCMA-Fc fusion protein containing the extracellular domain of human BCMA and a human IgG1Fc was conjugated to beads by covalently coupling to the surface of commercially available tosyl-activated magnetic beads having a diameter of approximately […] (M-450 beads, ThermoFisher, Waltham Mass.) (see e.g. International published PCT App. No. WO2019/027850). Following incubation, anti-BCMA CAR-expressing T cells were stained with antibodies and analyzed by flow cytometry to assess intracellular levels of Ikaros and Aiolos in CD4+CAR+ or CD8+CAR+ cells, as measured by median fluorescence intensity (MFI). Median fluorescence intensity (MFI) values for Ikaros and Aiolos were normalized and calculated as a percentage relative to vehicle control.

Aiolos = assay: Intracellular Aiolos expression in BCMA-bead stimulated anti-BCMA CAR T cells (flow cytometry, MFI); format: cell-based, human; details: CD4+CAR+ or CD8+CAR+ cells; 24 or 72 hours; lenalidomide 1000 nM, Compound A 1, 10, 100 nM, Compound B 0.1, 1, 10 nM
Description: as §1

RPMI-8226 target cells [1] = assay: Acute co-culture cytokine secretion of anti-BCMA CAR T cells with RPMI-8226; format: cell-based, human
Description: Anti-tumor effects of anti-BCMA CAR T cells, alone and in combination with cell immunomodulatory compounds Compound A (iberdomide, (S)-3-[4-(4-morpholin-4-ylmethyl-benzyloxy)-1-oxo-1,3-dihydro-isoindol-2-yl]-piperidine-2,6-dione) or Compound B ((S)-4-(4-(4-(((2-(2,6-dioxopiperidin-3-yl)-1-oxoisoindolin-4-yl)oxy)methyl)benzyl)piperazin-1-yl)-3-fluorobenzonitrile), were assessed in two different BCMA-expressing target multiple myeloma cell lines RPMI-8226 or OPM-2. Anti-BCMA CAR+ T cells were generated as described in Example 1.
The anti-BCMA CAR-expressing T cells were incubated with target cells, RPMI 8226 (BCMA^med human multiple myeloma cell line) or OPM2 cells (BCMA^med human multiple myeloma cell line) target cells, at an E:T ratio of 1:1. The co-culture incubation with target cells was carried out in the presence of Compound A (0.01 nM, 0.1 nM, 1 nM, 10 nM, 100 nM, 1000 nM, or 10,000 nM) or Compound B (0.01 nM, 0.1 nM, 1 nM, 10 nM, 100 nM, 1000 nM, or 10,000 nM).

anti-BCMA CAR T cells = assay: Viability and count of anti-BCMA CAR T cells after 7-day chronic stimulation with BCMA-conjugated beads; format: cell-based, human
Description: (§2) Cryofrozen anti-BCMA CAR T cells, produced substantially as described in Example 1 and formulated at a 1:1 ratio of CD4+ and CD8^+ T cells, were thawed. To subject cells to chronic stimulation conditions, the anti-BCMA CAR+ T cells were stimulated with 50 μg BCMA conjugated beads (diameter about 4.5 μm from a 50 μg/ml BCMA-conjugated bead composition, generated as described in Example 2) at a ratio of T cells to beads of 1:1 in the presence or absence of Compound A (iberdomide, (S)-3-[4-(4-morpholin-4-ylmethyl-benzyloxy)-1-oxo-1,3-dihydro-isoindol-2-yl]-piperidine-2,6-dione) (1 nM or 10 nM), Compound B ((S)-4-(4-(4-(((2-(2,6-dioxopiperidin-3-yl)-1-oxoisoindolin-4-yl)oxy)methyl)benzyl)piperazin-1-yl)-3-fluorobenzonitrile) (0.1 nM or 1 nM), or DMSO vehicle control. The cells were then incubated at 37° C., 5% CO2 for 7 days.
At day 7, anti-BCMA CAR cells of all the samples were counted using a cellometer machine and stained for flow cytometric analysis. Cells were stained with a viability dye and analyzed by flow cytometry. Viability and count of anti-BCMA CAR T cells was increased in the presence of Compound A or Compound B.
(§3) Cryofrozen anti-BCMA CAR T cells, produced substantially as described in Example 1 and formulated at a 1:1 ratio of CD4+ and CD8+ T cells, were thawed. […] The cells were then incubated at 37° C., 5% CO2 for 7 days.
At day 7, anti-BCMA CAR cells of all the samples were counted using a cellometer machine and stained for flow cytometric analysis. Cells were stained with a viability dye and analyzed by flow cytometry.

RPMI-8226 target cells [2] = assay: Rescue: rechallenge of chronically stimulated anti-BCMA CAR T cells with RPMI-8226 in the presence of compound; format: cell-based, human; details: Example 4: Compound A 1 or 10 nM, Compound B 0.1 or 1 nM during re-challenge
Description: Anti-BCMA CAR-expressing T cells, produced as described in Example 1, were stimulated with 50 μg BCMA conjugated beads (diameter about 4.5 μm from a 50 μg/ml BCMA-conjugated bead composition) substantially as described in Example 3 to induce chronic stimulation (to produce hypofunctional, exhausted T cells). After the chronic stimulation, the CAR-T cells were rechallenged with RPMI-8226 target cells (labeled with NucLightRed as described in Example 2) at a 1:1 (effector:target) ratio in the presence of (rescued) with Compound A (iberdomide, (S)-3-[4-(4-morpholin-4-ylmethyl-benzyloxy)-1-oxo-1,3-dihydro-isoindol-2-yl]-piperidine-2,6-dione) (1 nM or 10 nM), Compound B ((S)-4-(4-(4-(((2-(2,6-dioxopiperidin-3-yl)-1-oxoisoindolin-4-yl)oxy)methyl)benzyl)piperazin-1-yl)-3-fluorobenzonitrile) (0.1 nM or 1 nM), or DMSO vehicle control.
Killing activity and cytokine production were assessed as described in Example 3.
Studies were undertaken to determine whether Compound A (iberdomide, (S)-3-[4-(4-morpholin-4-ylmethyl-benzyloxy)-1-oxo-1,3-dihydro-isoindol-2-yl]-piperidine-2,6-dione) rescued anti-BCMA CAR T cell function following chronic stimulation. To directly stimulate via CAR engagement to induce chronic stimulation of cells, anti-BCMA CAR T cells were stimulated with BCMA conjugated beads (diameter about 4.5 μm from a 50 μg/ml BCMA-conjugated bead composition, generated as described in Example 9) at a ratio of T cells to beads of 1:1. The cells were then incubated at 37° C., 5% CO2 for 7 days.
Cultures were incubated at 37° C., 5% CO2, and images were taken every 2 hours over 5-7 days with an Essen IncuCyte Zoom live-cell analysis system to track NucLightRed-positive target cells.

PBMCs = details: cultures of PBMCs; cited from earlier work
RPMI-8226 target cells [3] = assay: Rechallenge with RPMI-8226 after concurrent compound treatment during chronic stimulation (cytolysis, cytokines); format: cell-based, human
Description: as §2
CAR T cells that had been stimulated for 7 days with cultured with 50 μg BCMA-coated magnetic beads concurrently in the presence of the cell immunomodulatory compound were washed free of compound and cells were debeaded. The anti-BCMA CAR T cells that had been stimulated for 7 days with BCMA-conjugated beads in the presence of the compounds were co-cultured with RPMI-8226 target cells (labeled with NucLightRed as described in Example 2) at a 1:1 (effector:target) ratio. Killing activity was monitored over 200 hours by measuring NucLightRed (NLR)-positive target cells. The total cell number of NLR-expressing RPMI targets cells was determined by normalizing cell number over time to the number of cells at the initiation of the co-culture (t=0) for each respective condition.
For cytokine measurements, cell-free supernatants were collected from the cytolytic assay described above 24 hours after plating. Cytokine levels of IFNg, IL-2, and TNFalpha (TNFα) was measured in the supernatant.
as §3
Cytolytic activity was assessed using OPM-2 and RPMI-8226 BCMA expressing target cells transduced with NucLight Red, a red fluorescent protein detectable by microscopy, to allow for measurement of target cell death. Anti-BCMA CAR T cells that had been stimulated for 7 days with BCMA-conjugated beads in the presence of the compounds were co-cultured with RPMI-8226 target cells at a 0.3:1 (effector:target) or 1:1 ratio. Cultures were incubated at 37° C., 5% CO2, and images were taken every 2 hours over 5-7 days with an Essen IncuCyte Zoom live-cell analysis system to track NucLightRed-positive target cells.
For cytokine measurements, cell-free supernatants were collected from the cytolytic assay described above 24 hours after plating. Cytokine levels were measured using IFNg, IL-2, and TNFalpha Meso Scale Discovery cytokine kit (Mesoscale) according to manufacturer instructions. The data was analyzed using GraphPad Prism to calculate absolute changes in cytokine relative to the DMSO vehicle control.

[4] = Example 3: day 7, Compound A 1 or 10 nM, Compound B 0.1 or 1 nM
[5] = Example 7: day 7, lenalidomide 1000 nM, Compound A 0.1, 1 or 10 nM, FIG. 8

N#Cc1ccc(N2CCN(Cc3ccc(COc4cccc5c4CN([C@H]4CCC(=O)NC4=O)C5=O)cc3)CC2)c(F)c1 [Compound B, (S)-4-(4-(4-(((2-(2,6-dioxopiperidin-3-yl)-1-oxoisoindolin-4-yl)oxy)methyl)benzyl)piperazin-1-yl)-3-fluorobenzonitrile]
intracellular Ikaros expression (MFI, percentage relative to vehicle control) (Ikaros; CD4+CAR+ or CD8+CAR+ cells, 24 or 72 hours, lenalidomide 1000 nM, Compound A 1, 10, 100 nM, Compound B 0.1, 1, 10 nM): concentration dependent decrease
potency in decreasing Ikaros and Aiolos expression, compared with lenalidomide (Ikaros; stimulated anti-BCMA CAR T cells): more potent than lenalidomide
intracellular Aiolos expression (MFI, percentage relative to vehicle control) (Aiolos): concentration dependent decrease
concentration needed for effect on cytokine production, compared with Compound A (RPMI-8226 target cells [1]; acute co-culture): enhanced effects at lower concentrations compared to Compound A
CAR T cell cytokine production (RPMI-8226 target cells [1]; similar studies, target cell line not stated): increased
count of anti-BCMA CAR T cells (anti-BCMA CAR T cells; [4]): increased
viability of anti-BCMA CAR T cells (anti-BCMA CAR T cells; [4]): increased
rescue of chronically activated CAR T cells (RPMI-8226 target cells [2]): able to rescue chronically activated CAR T cells to improve functionality
activation of T cells (PBMCs): activation of T cells
loss of Aiolos and Ikaros (PBMCs): induces loss of Aiolos and Ikaros
production of IL-2 and IFN-γ (PBMCs): increased production of IL-2 and IFN-γ

Nc1cccc2c1CN(C1CCC(=O)NC1=O)C2=O (centres unmarked) [lenalidomide, reference compound]
count of anti-BCMA CAR T cells (anti-BCMA CAR T cells; [5]): increased
viability of anti-BCMA CAR T cells (anti-BCMA CAR T cells; [5]): increased
cytolytic activity after long-term stimulation in the presence of compound (RPMI-8226 target cells [3]; Example 7: E:T 0.3:1, lenalidomide 1000 nM, Compound A 1 or 10 nM, FIG. 9A): increased cytolytic activity
production of IFN-gamma (RPMI-8226 target cells [3]; Example 7: supernatant at 24 hours, relative to DMSO, FIG. 9B): increased production
production of IL-2 (RPMI-8226 target cells [3]; Example 7: supernatant at 24 hours, relative to DMSO, FIG. 9C): increased production
production of TNF-alpha (RPMI-8226 target cells [3]; Example 7: supernatant at 24 hours, relative to DMSO, FIG. 9D): increased production
